In patent publication US12343326B2, “Psychoactive medicines and their use for treating psychiatric and neurological conditions and disorders” (Transcend Therapeutics, Inc., priority 2021, dated 2025):

Assays:
Test in all cases: β-arrestin based GPCR screen (PathHunter / GPCRmax), agonist mode
Assay type in all cases: cell-based
Parameters in all cases: host or cells: PathHunter cell lines
168 GPCRs [1] = target: 168 GPCRs (Homo sapiens, UniProt O00574)
Method: (§1) For agonist determination, cells were incubated with sample to induce response. […] Vehicle concentration was 1%.

168 GPCRs [2] = target: 168 GPCRs (Homo sapiens, UniProt O43603)
Method: as §1

168 GPCRs [3] = target: 168 GPCRs (Homo sapiens, UniProt O43614)
Sequence of 168 GPCRs (Homo sapiens, UniProt O43614) (O43614 whole entry): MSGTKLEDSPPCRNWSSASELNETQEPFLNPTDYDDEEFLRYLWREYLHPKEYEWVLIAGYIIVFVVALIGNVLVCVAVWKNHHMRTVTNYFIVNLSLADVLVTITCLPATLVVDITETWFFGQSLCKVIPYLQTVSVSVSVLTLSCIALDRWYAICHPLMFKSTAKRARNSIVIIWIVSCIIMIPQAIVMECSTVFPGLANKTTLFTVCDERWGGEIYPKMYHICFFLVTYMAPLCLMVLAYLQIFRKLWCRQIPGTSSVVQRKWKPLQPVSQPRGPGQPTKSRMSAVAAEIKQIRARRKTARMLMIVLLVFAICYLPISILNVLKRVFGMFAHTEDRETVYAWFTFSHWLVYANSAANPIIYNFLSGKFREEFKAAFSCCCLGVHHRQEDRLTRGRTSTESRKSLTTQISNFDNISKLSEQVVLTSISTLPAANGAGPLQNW
Method: as §1

168 GPCRs [4] = target: 168 GPCRs (Homo sapiens, UniProt P08172); conditions: CHRM2, Agonist
Method: as §1

168 GPCRs [5] = target: 168 GPCRs (Homo sapiens, UniProt P18825); conditions: ADRA2C, Agonist
Method: as §1

168 GPCRs [6] = target: 168 GPCRs (Homo sapiens, UniProt P21453)
Method: as §1

168 GPCRs [7] = target: 168 GPCRs (Homo sapiens, UniProt P21730); conditions: C5AR1, Agonist
Sequence of 168 GPCRs (Homo sapiens, UniProt P21730) (P21730 whole entry): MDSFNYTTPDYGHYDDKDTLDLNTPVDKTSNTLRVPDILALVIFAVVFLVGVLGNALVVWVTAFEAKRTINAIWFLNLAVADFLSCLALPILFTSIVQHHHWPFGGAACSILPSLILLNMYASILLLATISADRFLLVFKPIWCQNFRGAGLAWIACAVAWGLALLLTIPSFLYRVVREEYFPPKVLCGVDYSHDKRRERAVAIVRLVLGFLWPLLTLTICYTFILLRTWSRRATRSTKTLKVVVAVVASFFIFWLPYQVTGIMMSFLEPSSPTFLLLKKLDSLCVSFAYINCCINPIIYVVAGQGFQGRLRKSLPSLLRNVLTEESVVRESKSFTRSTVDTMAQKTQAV
Method: as §1

168 GPCRs [8] = target: 168 GPCRs (Homo sapiens, UniProt P21917)
Sequence of 168 GPCRs (Homo sapiens, UniProt P21917) (P21917 whole entry): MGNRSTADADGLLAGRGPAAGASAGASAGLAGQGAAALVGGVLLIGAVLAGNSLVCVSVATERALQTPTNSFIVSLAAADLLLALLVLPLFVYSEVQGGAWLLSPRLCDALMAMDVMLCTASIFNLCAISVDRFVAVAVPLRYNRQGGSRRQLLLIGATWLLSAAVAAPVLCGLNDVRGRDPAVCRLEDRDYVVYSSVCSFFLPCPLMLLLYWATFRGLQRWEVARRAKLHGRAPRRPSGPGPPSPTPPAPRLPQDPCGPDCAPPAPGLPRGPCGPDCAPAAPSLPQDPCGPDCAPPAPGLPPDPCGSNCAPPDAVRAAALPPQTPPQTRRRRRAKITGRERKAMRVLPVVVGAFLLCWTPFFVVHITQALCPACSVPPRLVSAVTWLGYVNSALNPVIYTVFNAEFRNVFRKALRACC
Method: as §1

168 GPCRs [9] = target: 168 GPCRs (Homo sapiens, UniProt P25929); conditions: NPY1R
Method: as §1

168 GPCRs [10] = target: 168 GPCRs (Homo sapiens, UniProt P30411); conditions: BDKRB2; Agonist; 1 uM
Method: as §1

168 GPCRs [11] = target: 168 GPCRs (Homo sapiens, UniProt P30989)
Method: as §1

168 GPCRs [12] = target: 168 GPCRs (Homo sapiens, UniProt P32239); conditions: CCKBR, Agonist
Method: as §1

168 GPCRs [13] = target: 168 GPCRs (Homo sapiens, UniProt P34981); conditions: TRHR
Sequence of 168 GPCRs (Homo sapiens, UniProt P34981) (P34981 whole entry): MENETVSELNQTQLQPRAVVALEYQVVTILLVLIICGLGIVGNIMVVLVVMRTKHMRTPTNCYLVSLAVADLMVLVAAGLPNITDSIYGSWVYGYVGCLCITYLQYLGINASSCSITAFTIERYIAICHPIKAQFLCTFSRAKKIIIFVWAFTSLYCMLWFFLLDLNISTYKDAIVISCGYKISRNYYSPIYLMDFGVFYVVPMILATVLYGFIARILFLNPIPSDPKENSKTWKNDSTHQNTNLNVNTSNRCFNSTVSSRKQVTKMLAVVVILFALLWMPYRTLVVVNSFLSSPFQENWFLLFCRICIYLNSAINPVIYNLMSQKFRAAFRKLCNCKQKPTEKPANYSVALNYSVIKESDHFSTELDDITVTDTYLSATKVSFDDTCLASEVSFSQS
Method: as §1

168 GPCRs [14] = target: 168 GPCRs (Homo sapiens, UniProt P41143)
Method: as §1

168 GPCRs [15] = target: 168 GPCRs (Homo sapiens, UniProt P43116)
Sequence of 168 GPCRs (Homo sapiens, UniProt P43116) (P43116 whole entry): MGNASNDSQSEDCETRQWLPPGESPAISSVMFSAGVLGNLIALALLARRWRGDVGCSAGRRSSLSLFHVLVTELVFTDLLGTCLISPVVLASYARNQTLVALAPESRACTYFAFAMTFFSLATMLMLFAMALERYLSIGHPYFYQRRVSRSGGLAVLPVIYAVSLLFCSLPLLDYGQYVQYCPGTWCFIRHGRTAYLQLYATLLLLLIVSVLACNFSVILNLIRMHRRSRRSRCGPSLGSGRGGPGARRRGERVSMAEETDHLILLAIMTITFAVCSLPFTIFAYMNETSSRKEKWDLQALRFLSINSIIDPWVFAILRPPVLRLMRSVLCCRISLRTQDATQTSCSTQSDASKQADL
Method: as §1

168 GPCRs [16] = target: 168 GPCRs (Homo sapiens, UniProt P47211)
Sequence of 168 GPCRs (Homo sapiens, UniProt P47211) (P47211 whole entry): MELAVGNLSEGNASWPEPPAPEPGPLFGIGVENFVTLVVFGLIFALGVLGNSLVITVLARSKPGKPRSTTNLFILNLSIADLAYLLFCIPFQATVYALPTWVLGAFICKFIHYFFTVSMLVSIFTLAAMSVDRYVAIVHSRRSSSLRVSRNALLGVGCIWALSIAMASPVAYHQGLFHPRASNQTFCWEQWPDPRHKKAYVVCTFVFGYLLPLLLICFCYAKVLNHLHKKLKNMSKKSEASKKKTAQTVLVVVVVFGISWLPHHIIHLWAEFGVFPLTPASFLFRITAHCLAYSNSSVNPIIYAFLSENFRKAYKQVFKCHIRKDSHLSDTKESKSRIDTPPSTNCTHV
Method: as §1

168 GPCRs [17] = target: 168 GPCRs (Homo sapiens, UniProt P49190)
Sequence of 168 GPCRs (Homo sapiens, UniProt P49190) (P49190 25-550): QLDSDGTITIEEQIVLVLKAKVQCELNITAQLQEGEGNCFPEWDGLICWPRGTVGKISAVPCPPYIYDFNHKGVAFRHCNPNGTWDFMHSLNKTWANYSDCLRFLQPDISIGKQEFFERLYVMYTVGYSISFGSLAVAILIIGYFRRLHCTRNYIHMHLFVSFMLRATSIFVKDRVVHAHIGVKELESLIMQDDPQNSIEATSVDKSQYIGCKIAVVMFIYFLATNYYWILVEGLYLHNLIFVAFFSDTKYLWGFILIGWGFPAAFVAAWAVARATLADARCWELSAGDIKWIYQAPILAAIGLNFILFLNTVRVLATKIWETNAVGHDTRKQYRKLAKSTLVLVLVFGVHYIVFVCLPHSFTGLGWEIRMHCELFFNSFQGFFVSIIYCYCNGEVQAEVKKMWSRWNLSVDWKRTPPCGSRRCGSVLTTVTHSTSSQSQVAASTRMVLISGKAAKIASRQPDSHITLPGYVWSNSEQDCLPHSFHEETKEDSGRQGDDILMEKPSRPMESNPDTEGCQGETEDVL
Method: as §1

168 GPCRs [18] = target: 168 GPCRs (Homo sapiens, UniProt P51679); conditions: CCR4, Agonist
Sequence of 168 GPCRs (Homo sapiens, UniProt P51679) (P51679 whole entry): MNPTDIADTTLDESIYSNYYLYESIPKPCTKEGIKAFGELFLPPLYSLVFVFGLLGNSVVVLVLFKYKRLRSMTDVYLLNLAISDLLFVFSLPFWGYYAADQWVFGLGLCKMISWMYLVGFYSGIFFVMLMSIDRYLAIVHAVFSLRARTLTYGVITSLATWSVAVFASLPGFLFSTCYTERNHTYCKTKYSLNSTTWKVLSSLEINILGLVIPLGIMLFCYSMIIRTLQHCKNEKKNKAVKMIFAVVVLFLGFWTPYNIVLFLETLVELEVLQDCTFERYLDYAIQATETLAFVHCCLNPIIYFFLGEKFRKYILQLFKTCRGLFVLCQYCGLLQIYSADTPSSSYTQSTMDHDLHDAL
Method: as §1

168 GPCRs [19] = target: 168 GPCRs (Homo sapiens, UniProt P61073)
Method: as §1

168 GPCRs [20] = target: 168 GPCRs (Homo sapiens, UniProt Q969F8); conditions: KISS1R
Method: as §1

168 GPCRs [21] = target: 168 GPCRs (Homo sapiens, UniProt Q96LB1)
Sequence of 168 GPCRs (Homo sapiens, UniProt Q96LB1) (Q96LB1 whole entry): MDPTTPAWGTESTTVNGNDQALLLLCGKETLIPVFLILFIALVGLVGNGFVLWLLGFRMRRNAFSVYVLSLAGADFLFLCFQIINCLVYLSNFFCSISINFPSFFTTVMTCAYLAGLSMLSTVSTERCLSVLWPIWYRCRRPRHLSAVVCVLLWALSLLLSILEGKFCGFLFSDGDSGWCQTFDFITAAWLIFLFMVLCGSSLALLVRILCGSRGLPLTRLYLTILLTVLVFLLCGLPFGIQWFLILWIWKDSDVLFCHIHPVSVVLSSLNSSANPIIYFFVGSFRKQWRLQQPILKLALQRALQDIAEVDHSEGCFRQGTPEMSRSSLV
Method: as §1

168 GPCRs [22] = target: 168 GPCRs (Homo sapiens, UniProt Q96P65)
Sequence of 168 GPCRs (Homo sapiens, UniProt Q96P65) (Q96P65 whole entry): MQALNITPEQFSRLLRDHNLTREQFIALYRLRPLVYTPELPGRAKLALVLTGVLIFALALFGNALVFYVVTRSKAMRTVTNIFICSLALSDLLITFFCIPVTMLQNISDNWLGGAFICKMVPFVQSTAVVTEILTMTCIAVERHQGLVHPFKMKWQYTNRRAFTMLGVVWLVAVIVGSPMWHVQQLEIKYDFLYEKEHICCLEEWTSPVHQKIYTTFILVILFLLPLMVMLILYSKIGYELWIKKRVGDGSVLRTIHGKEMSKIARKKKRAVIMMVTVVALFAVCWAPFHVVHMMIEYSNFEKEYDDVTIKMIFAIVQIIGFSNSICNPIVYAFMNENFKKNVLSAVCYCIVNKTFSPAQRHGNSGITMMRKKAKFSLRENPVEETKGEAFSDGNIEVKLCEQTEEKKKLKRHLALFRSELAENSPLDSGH
Method: as §1

168 GPCRs [23] = target: 168 GPCRs (Homo sapiens, UniProt Q9UBY5)
Sequence of 168 GPCRs (Homo sapiens, UniProt Q9UBY5) (Q9UBY5 whole entry): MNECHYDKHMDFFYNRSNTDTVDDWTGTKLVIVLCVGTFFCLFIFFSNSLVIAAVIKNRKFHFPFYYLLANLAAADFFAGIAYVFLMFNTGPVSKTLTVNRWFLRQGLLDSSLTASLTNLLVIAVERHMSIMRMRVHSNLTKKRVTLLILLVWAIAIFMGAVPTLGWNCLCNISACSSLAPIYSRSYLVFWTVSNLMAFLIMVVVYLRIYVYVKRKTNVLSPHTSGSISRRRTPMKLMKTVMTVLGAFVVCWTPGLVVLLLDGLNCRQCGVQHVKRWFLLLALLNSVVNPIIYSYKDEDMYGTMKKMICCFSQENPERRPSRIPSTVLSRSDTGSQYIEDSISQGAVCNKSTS
Method: as §1

Sequence of 168 GPCRs (Homo sapiens, UniProt O00574) (O00574 whole entry): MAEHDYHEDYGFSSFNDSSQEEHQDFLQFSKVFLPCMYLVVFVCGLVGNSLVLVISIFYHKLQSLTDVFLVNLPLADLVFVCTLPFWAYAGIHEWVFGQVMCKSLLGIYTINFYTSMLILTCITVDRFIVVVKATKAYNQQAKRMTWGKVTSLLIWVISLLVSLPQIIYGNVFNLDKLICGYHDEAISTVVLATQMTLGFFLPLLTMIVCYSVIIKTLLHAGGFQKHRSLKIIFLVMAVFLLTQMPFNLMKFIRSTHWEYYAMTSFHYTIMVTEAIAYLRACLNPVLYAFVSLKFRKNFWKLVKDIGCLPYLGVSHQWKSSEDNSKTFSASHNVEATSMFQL

SMILES: CNC(C)C(=O)c1ccc2c(c1)OCO2 (stereo not drawn) [methylone, 3,4-methylenedioxy-N-methylcathinone]
- activity at 10 µM (168 GPCRs [1]; CXCR6, Agonist mode, 10 uM): 0.3%
- activity at 1 µM (168 GPCRs [1]; CXCR6, Agonist, 1 uM): 0.3%
- activity at 10 µM (168 GPCRs [2]; GALR2, Agonist mode, 10 uM): 1.9%
- activity at 1 µM (168 GPCRs [2]; GALR2, Agonist, 1 uM): 3.4%
- activity at 10 µM (168 GPCRs [3]; HCRTR2, Agonist mode, 10 uM): 0.2%
- activity at 1 µM (168 GPCRs [3]; HCRTR2, Agonist, 1 uM): 0.2%
- activity at 1 µM (168 GPCRs [4]; 1 uM): -0.2%
- activity at 10 µM (168 GPCRs [4]; 10 uM): 0.2%
- activity at 1 µM (168 GPCRs [5]; 1 uM): -2.5%
- activity at 10 µM (168 GPCRs [5]; 10 uM): 0.1%
- activity at 10 µM (168 GPCRs [6]; EDG1, Agonist mode, 10 uM): 0.4%
- activity at 1 µM (168 GPCRs [6]; EDG1, Agonist, 1 uM): 0.1%
- activity at 1 µM (168 GPCRs [7]; 1 uM): -1%
- activity at 10 µM (168 GPCRs [7]; 10 uM): -1.3%
- activity at 10 µM (168 GPCRs [8]; DRD4, Agonist mode, 10 uM): 9.4%
- activity at 1 µM (168 GPCRs [8]; DRD4, Agonist, 1 uM): -8%
- activity at 10 µM (168 GPCRs [9]; Agonist mode, 10 uM): -4.9%
- activity at 1 µM (168 GPCRs [9]; Agonist, 1 uM): -2.2%
- activity at 1 µM (168 GPCRs [10]): -3.6%
- activity at 10 µM (168 GPCRs [11]; NTSR1, Agonist mode, 10 uM): -3.5%
- activity at 1 µM (168 GPCRs [11]; NTSR1, Agonist, 1 uM): -4.7%
- activity at 1 µM (168 GPCRs [12]; 1 uM): -1%
- activity at 10 µM (168 GPCRs [12]; 10 uM): 1.5%
- activity at 10 µM (168 GPCRs [13]; Agonist mode, 10 uM): -2.2%
- activity at 1 µM (168 GPCRs [13]; Agonist, 1 uM): -2%
- activity at 10 µM (168 GPCRs [14]; OPRD1, Agonist mode, 10 uM): -1.5%
- activity at 1 µM (168 GPCRs [14]; OPRD1, Agonist, 1 uM): -2%
- activity at 10 µM (168 GPCRs [15]; PTGER2, Agonist mode, 10 uM): -3.1%
- activity at 1 µM (168 GPCRs [15]; PTGER2, Agonist, 1 uM): -1.4%
- activity at 10 µM (168 GPCRs [16]; GALR1, Agonist mode, 10 uM): 0.6%
- activity at 1 µM (168 GPCRs [16]; GALR1, Agonist, 1 uM): 0.8%
- activity at 10 µM (168 GPCRs [17]; PTHR2, Agonist mode, 10 uM): -0.5%
- activity at 1 µM (168 GPCRs [17]; PTHR2, Agonist, 1 uM): -0.6%
- activity at 1 µM (168 GPCRs [18]; 1 uM): -0.5%
- activity at 10 µM (168 GPCRs [18]; 10 uM): 1.4%
- activity at 10 µM (168 GPCRs [19]; CXCR4, Agonist mode, 10 uM): 7%
- activity at 1 µM (168 GPCRs [19]; CXCR4, Agonist, 1 uM): -4%
- activity at 10 µM (168 GPCRs [20]; Agonist mode, 10 uM): -3.7%
- activity at 1 µM (168 GPCRs [20]; Agonist, 1 uM): -5.5%
- activity at 10 µM (168 GPCRs [21]; MRGPRX2, Agonist mode, 10 uM): 0.73%
- activity at 1 µM (168 GPCRs [21]; MRGPRX2, Agonist, 1 uM): 1.4%
- activity at 10 µM (168 GPCRs [22]; GPR103, Agonist mode, 10 uM): 3.13%
- activity at 1 µM (168 GPCRs [22]; GPR103, Agonist, 1 uM): 0.8%
- activity at 10 µM (168 GPCRs [23]; EDG7, Agonist mode, 10 uM): 1.1%
- activity at 1 µM (168 GPCRs [23]; EDG7, Agonist, 1 uM): 3%
